Experimental data as given in patent publication US8362204B2 (priority 2006, dated 2013).
Where “and” joins values, the source holds several entries; their conditions need not be identical. Identical values can stand only once.

Biological target: T1, neuronal-type nicotinic receptors (Bos taurus, UniProt Q07263+Q8SPU6)
T1 construct: monolayer cultures of bovine adrenal chromaffin cells; endogenous in cells; host or cells: bovine adrenal chromaffin cells (primary monolayer cultures)
Assay type: cell-based, Bovine

T1 sequence (Q07263 22-495): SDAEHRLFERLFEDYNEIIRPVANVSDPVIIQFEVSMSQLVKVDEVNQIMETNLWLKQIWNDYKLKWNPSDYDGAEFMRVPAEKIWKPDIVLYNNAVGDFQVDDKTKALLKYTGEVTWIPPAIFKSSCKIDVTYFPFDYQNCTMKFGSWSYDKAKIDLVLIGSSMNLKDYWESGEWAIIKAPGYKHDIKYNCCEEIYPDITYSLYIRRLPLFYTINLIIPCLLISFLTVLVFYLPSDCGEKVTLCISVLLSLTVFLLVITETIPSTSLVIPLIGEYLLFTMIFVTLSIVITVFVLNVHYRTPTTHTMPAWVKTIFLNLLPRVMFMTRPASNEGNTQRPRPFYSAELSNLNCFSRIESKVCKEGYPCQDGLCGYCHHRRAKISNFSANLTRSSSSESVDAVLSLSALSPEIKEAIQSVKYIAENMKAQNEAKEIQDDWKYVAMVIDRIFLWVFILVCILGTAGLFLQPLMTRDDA
T1 sequence (Q8SPU6 20-496): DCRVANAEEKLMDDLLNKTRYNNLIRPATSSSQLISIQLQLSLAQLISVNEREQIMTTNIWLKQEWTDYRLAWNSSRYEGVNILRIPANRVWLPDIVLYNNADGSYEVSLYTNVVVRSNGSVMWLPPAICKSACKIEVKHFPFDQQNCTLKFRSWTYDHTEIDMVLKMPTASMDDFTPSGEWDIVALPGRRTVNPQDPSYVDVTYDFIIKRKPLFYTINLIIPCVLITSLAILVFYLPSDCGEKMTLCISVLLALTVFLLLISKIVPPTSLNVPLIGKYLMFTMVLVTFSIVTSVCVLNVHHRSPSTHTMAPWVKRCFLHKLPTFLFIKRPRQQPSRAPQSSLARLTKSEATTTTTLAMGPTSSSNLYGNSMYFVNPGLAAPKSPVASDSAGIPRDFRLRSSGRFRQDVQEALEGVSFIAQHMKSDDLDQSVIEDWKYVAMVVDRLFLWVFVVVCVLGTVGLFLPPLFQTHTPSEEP

SMILES: CN1CCCC1c1cccnc1 (centres unmarked) [NICOTINE, nicotine, reference compound]
- Adrenaline Release, 1st-4th (individual wells): 4.31% and 4.52% (2×) and 4.48%
- Adrenaline Release, mean: 4.46%
- Noradrenaline Release, 1st-4th (individual wells): 6.62% and 6.89% (2×) and 6.99%
- Noradrenaline Release, mean: 6.85%
- noradrenaline released, basal release (0.72%) subtracted: 6.13%
